From US12546786B2, “Circulatory biomarkers for placental or fetal health” (THE UNIVERSITY OF MELBOURNE, priority 2018, dated 2026) come the findings set out here.

The assay relates to HTR8 cells. Kind of assay: HTR8 placental cell line proliferation monitored in real time using the xCELLigence system. Format: cell-based. The following applies: 5 or 10 uM of SRI31215 administered to HTR8 placental cell line. Here is the method:
FIGS. 3A through P are graphical representations showing observational studies to determine whether placental SPINT1 is altered in cases of human SGA. To do this, a cohort of placentas was selected from either control, preeclamptic or SGA pregnancies. […] No change in SPINT1 mRNA expression was detected in placentas collected from patients who delivered at >34 weeks gestation (B). SPINT1 protein expression was assessed using Western blot and commercially available antibodies (C,D). […] Growth restriction is often associated with placental insufficiency and poor oxygen delivery to the placenta, resulting in placental hypoxia. The inventors assessed whether exposure of primary placental cells (cytotrophoblast cells isolated from term human placentas) to low oxygen conditions (1% Oxygen for hypoxia vs 8% oxygen for normoxia) would alter SPINT1 mRNA and protein expression and protein secretion. […] Given previous evidence in mice that a lack of SPINT1 may be associated with a poorly developed placenta, the inventors next set out to assess whether silencing SPINT1 using siRNA knockdown in the HTR8 placental cell line would affect cellular proliferation assessed in real time using the xCELLigence system. […] To do this, a commercially available SPINT1 mimetic called SRI31215 (Glixx laboratories) was administered to HTR8 cells and their proliferation monitored using the xCELLigence system. […]

As for `CC1CN(CC2CCN(Cc3ccccc3)CC2)C(=O)N(c2cccc(C(=N)N)c2)C1.O=C(O)C(F)(F)F` (stereo not shown) [SRI31215], the HTR8 proliferation result was “enhanced HTR8 proliferation”.
